US20050277664A1, “Monoamine neurotransmitter re-uptake inhibitor for the inhibition of beta-amyloid generation” (Boehringer Ingelheim International GmbH, priority 2004, published 2005)
Like-named read-outs stand apart in the source and are kept apart here.

Tests used:
[1] = tested on: Aβ40 secretion by U373 astrocytoma cells expressing human wtAPP695; assay: Aβ secretion assay, Aβ40 (sandwich ELISA of cell supernatant); format: cell-based; conditions: for inhibition at 1.56 µM / inhibition at 3.12 µM / inhibition at 6.25 µM / inhibition at 12.5 µM / inhibition at 25 µM / inhibition at 50 µM: Homo sapiens, U373 MG, 4 h, read-out: Aβ40 Secretion, inhibition (−) or stimulation (+); for generation/secretion of Aβ40 (result in words): dose response
Protocol: (§1) Cell culture and drug treatment: U373 astrocytoma cells expressing human wtAPP695 were used to test the compound of formula IA for Aβ lowering potential. Cells were cultured in 96 well plates in DMEM medium, additionally supplemented with 10% FCS and 1% glutamine, until they have grown to a confluent cell layer. The cells were then incubated for 17 hours in the presence of the compound of formula IA in DMEM medium. Afterwards, 100 μl of the supernatant had been removed and measured with the ELISA as described below to determine the Aβ42 peptide concentrations. The cells were washed, incubated again for 4 hours with the compound, before measuring the Aβ40 levels. AlamarBlue assays (Serotec, Oxford, UK) were conducted to determine cytotoxicity.
(§2) Monoclonal 6E10 against Aβ1-17 (Signet Laboratories, Inc., Dedham, Mass., USA) was used to capture Aβ40; SGY 3160 against Aβ1-16 (Mayo Medical Ventures, Rochester, Minn., USA) to capture Aβ42. Both antibodies were diluted in PBS at a concentration of 8 μg/ml to coat a 96 well plate. Blocking was completed with 1% Block ACE (blocking reagent) (Dainippon Seiyaku, Asaka, Japan) in PBS for 2 hrs. The plates were then washed with PBST and the cell supernatants, diluted 1:1.5 in EC buffer (0.1 M NaH2PO4, 0.1 M Na2HPO4, 2 mM EDTA, 0.4 M NaCl, 0.2% BSA, 0.05% CHAPS, 0.4% Block ACE, 0.05% NaN3 pH 7.0) have been added into the wells, before the plates were stored at 4° C. over night. Detector antibodies (alkaline phosphatase-coupled ROβ40 and ROβ42 against Aβ40 and Aβ42, respectively), were loaded onto the wells at 0.1 μg/ml in ACE Block for 2 hrs. The reporter system used was the Tropix ELISA-Light chemiluminescent detection system (Applied Biosystems (Tropix), Bedford, Mass., USA).
(§3) The compound of formula IA has been tested in an Aβ secretion assay. In this particular in vitro assay, the astrocytoma cell line U373 that stably over-expresses wild-type human amyloid precursor protein (APP) has been exposed to this compound. APP is proteolytically cleaved by 2 enzymes, BACE and γ secretase, to generate the Aβ peptides. Because of a flexible APP cleavage site of γ secretase, several Aβ isoforms are generated, majorly Aβ40 and Aβ42. The rate of Aβ generation/secretion into the medium in the presence or absence of the compound of formula IA in different concentrations has been measured by ELISA (Table 1). The % inhibition (−) or stimulation (+) has been determined in 2 independent experiments.

[2] = tested on: cerebral Aβ42 levels in APPtg mice; assay: Cerebral Aβ42 levels in APPtg mice after oral treatment; format: in vivo; conditions: for Level of Aβ42, reduction (−) and/or stimulation (+) of cerebral Aβ levels: per os
Protocol: (§4) APPtg mice at 3 to 4 months of age were used. A compound of formula (IA) was prepared and administered in a suspension of 0.5% Tylose solution.
(§5) Controls were treated with Tylose only. Each group consisted of 12 or 13 mice with equal numbers of each sex. In the short term study, the animals were treated for the time period of 2.5 days. Twice a day, a dose of 3 mg/kg was applied with interruption times of 11.5-12.5 hours. On the last day (day of sacrifice), one dose of 3 mg/kg was administered and the mice were sacrificed 5.5 hours later. […] In a second long term four weeks study, 3 mg/kg/day of compound of formula IA were administered, subdivided into two subdoses, with an interruption time of 10-12 hours during the day. Each version of the in vivo experiments has been performed once.
(§6) The murine brains were rapidly removed from the skull and divided along the medial fissure. The cerebellum was removed before each half was quickly frozen down on a metal plate that had been cooled down on dry ice. Brains were placed in Eppendorf tubes, frozen in liquid nitrogen, and stored at −80° C. until needed for Aβ extractions or compound measurements.
(§7) Brains were thawed on ice. Mouse hemibrains were extracted in a homogenisation buffer consisting of 20 mM Tris (pH 8.5), 0.2% Triton X-100, and complete proteinase inhibitor with EDTA (Roche Diagnostics GmbH, Mannheim, Germany). The brains were homogenized in a volume […] 5 times the weight of the brain (mg) using a 2 ml Douncer Homogenator (B. Braun, Melsungen, Germany). This was carried out 12 times with a Stempel L, followed by a Stempel S. The homogenates were then ultracentrifuged in Ultracentrifuge tubes (Beckman, CA, USA) at 200.000 g (UZ Sorvall RC 120 GX, KENDRO Laboratories Products GmbH, Hanau, Germany) at 4° C. for 1 hour. The post nuclear supernatants containing the soluble Aβ were collected and measured in a Sandwich ELISA (s.a.).
(§8) Statistical analyses of data was done by one-sided t tests for differences between treatment and control group to determine the p values.

[3] = tested on: Aβ42 secretion by U373 astrocytoma cells expressing human wtAPP695; assay: Aβ secretion assay, Aβ42 (sandwich ELISA of cell supernatant); format: cell-based; conditions: for inhibition at 1.56 µM / inhibition at 3.12 µM / inhibition at 6.25 µM / inhibition at 12.5 µM / inhibition at 25 µM / inhibition at 50 µM: Homo sapiens, U373 MG, 17 h, read-out: Aβ42 Secretion, inhibition (−) or stimulation (+); for generation/secretion of Aβ42 (result in words): dose response
Protocol: as §1, §2, §3

[4] = tested on: cerebral Aβ40 levels in APPtg mice; assay: Cerebral Aβ40 levels in APPtg mice after oral treatment; format: in vivo; conditions: for Level of Aβ40, reduction (−) and/or stimulation (+) of cerebral Aβ levels: per os
Protocol: as §4, §5, §6, §7, §8

[5] = Exp. 1, further 4 hours incubation
[6] = Exp. 2, further 4 hours incubation

Structure (SMILES): CCOC[C@H]1C2CCC(C[C@@H]1c1ccc(Cl)c(Cl)c1)N2C (some centres unmarked) [Formula IA]
- inhibition at 1.56 µM [1, 5]: 3.2%
- inhibition at 1.56 µM [1, 6]: -16%
- inhibition at 3.12 µM [1, 5]: 6.1%
- inhibition at 3.12 µM [1, 6]: -8%
- inhibition at 6.25 µM [1, 5]: 20.9%
- inhibition at 6.25 µM [1, 6]: 2.8%
- inhibition at 12.5 µM [1, 5]: 33.9%
- inhibition at 12.5 µM [1, 6]: 24.8%
- inhibition at 25 µM [1, 5]: 50.1%
- inhibition at 25 µM [1, 6]: 50.3%
- inhibition at 50 µM [1, 5]: 81.3%
- inhibition at 50 µM [1, 6]: 88.5%
- generation/secretion of Aβ40 (result in words) ([1]; FIG. 1): increasing inhibition of Aβ40 with an increasing concentration
- generation/secretion of Aβ40 (result in words) ([1]; FIG. 1, listed as formula 1A): inhibited
- reduction for Aβ42 ([2]; four weeks study, 3 mg/kg/day in two subdoses): 27.4%
- Level of Aβ42, reduction (−) and/or stimulation (+) of cerebral Aβ levels ([2]; 2 weeks, 1 × 3.0 mg/kg/day, mean ± SEM): −16.3 ± 3.7 %
- Level of Aβ42, reduction (−) and/or stimulation (+) of cerebral Aβ levels ([2]; 4 weeks, 2 × 1.5 mg/kg/day, mean ± two-sided confidence interval): −27.4 ± 27.2° %
- Level of Aβ42, reduction (−) and/or stimulation (+) of cerebral Aβ levels ([2]; 2.5 days, 2 × 3.0 mg/kg day 1, 2, 1 × 3.0 mg/kg day 3, mean ± SEM vs Tylose control): +5.1 ± 3.0%
- increase of Aβ42 levels ([2]; short term in vivo experiment (2.5 days, 3 mg/kg twice a day), p=0.9136): 5.1%
- reduction of the cerebral Aβ42 levels ([2]; two weeks treatment, 3 mg/kg once a day, p=0.0096): 16.3%
- inhibition at 1.56 µM ([3]; Exp. 1, 17 hours incubation): 3.5%
- inhibition at 1.56 µM ([3]; Exp. 2, 17 hours incubation): -4.5%
- inhibition at 3.12 µM ([3]; Exp. 1, 17 hours incubation): 6.5%
- inhibition at 3.12 µM ([3]; Exp. 2, 17 hours incubation): -16.1%
- inhibition at 6.25 µM ([3]; Exp. 1, 17 hours incubation): 4.1%
- inhibition at 6.25 µM ([3]; Exp. 2, 17 hours incubation): 12.1%
- inhibition at 12.5 µM ([3]; Exp. 1, 17 hours incubation): 17.8%
- inhibition at 12.5 µM ([3]; Exp. 2, 17 hours incubation): 23.2%
- inhibition at 25 µM ([3]; Exp. 1, 17 hours incubation): 24.5%
- inhibition at 25 µM ([3]; Exp. 2, 17 hours incubation): 48.9%
- inhibition at 50 µM ([3]; Exp. 1, 17 hours incubation): 26.6%
- inhibition at 50 µM ([3]; Exp. 2, 17 hours incubation): 62.3%
- generation/secretion of Aβ42 (result in words) ([3]; FIG. 2): increasing inhibition of Aβ42 with an increasing concentration
- generation/secretion of Aβ42 (result in words) ([3]; FIG. 2, listed as formula 1A): inhibited
- Level of Aβ40, reduction (−) and/or stimulation (+) of cerebral Aβ levels ([4]; APPtg mice, 2 weeks, 1 × 3.0 mg/kg/day, mean ± SEM): −18.6 ± 7.1 %
- Level of Aβ40, reduction (−) and/or stimulation (+) of cerebral Aβ levels ([4]; APPtg mice, 4 weeks, 2 × 1.5 mg/kg/day, mean ± two-sided confidence interval): −17.2 ± 8.7° %
- Level of Aβ40, reduction (−) and/or stimulation (+) of cerebral Aβ levels ([4]; APPtg mice, 2.5 days, 2 × 3.0 mg/kg day 1, 2, 1 × 3.0 mg/kg day 3, mean ± SEM vs Tylose control): −12.4 ± 1.9 %
- reduction of Aβ40 ([4]; four weeks study, 3 mg/kg/day in two subdoses, APPtg mice): 17.2%
- Aβ40 levels in vivo (result in words) ([4]; in vivo test, FIG. 3 (short term experiment)): statistically significant reduction
- reduction of the Aβ40 levels ([4]; short term in vivo experiment (2.5 days, 3 mg/kg twice a day), APPtg mice, p=0.0003): 12.4%
- reduction of the cerebral Aβ40 levels ([4]; two weeks treatment, 3 mg/kg once a day, APPtg mice, p=0.024): 18.6%
